# According to ChEMBL document CHEMBL2375215, “Phenylpropiophenone derivatives as potential anticancer agents: synthesis, biological evaluation and quantitative structure-activity relationship study” (Eur J Med Chem, 2013):
# pIC50: −log10 of the molar value.
# Legend:
# PC-3 [1] = assay: Selectivity index, ratio of IC50 for human PBMC to IC50 for human PC3 cells
# HeLa [2] = assay: Cytotoxicity against human HeLa cells assessed as decrease in cell survival after 72 hrs by MTT assay; type: functional, cell-based; details: for pIC50: read-out: IC50; for IC50: read-out: pIC50 (converted)
# PBMC [3] = assay: Cytotoxicity against human PBMC assessed as decrease in cell survival after 72 hrs by MTT assay; type: cell-based
# PC-3 [4] = assay: Cytotoxicity against human PC3 cells assessed as decrease in cell survival after 72 hrs by MTT assay; type: functional, cell-based; details: for pIC50 / IC50: PC-3, 72 h; for pIC50: read-out: IC50; for IC50: read-out: pIC50 (converted)
# [5] = (§1) Cytotoxicity against human Fem-X cells assessed as decrease in cell survival after 72 hrs by MTT assay; type: functional, cell-based; details: for pIC50: read-out: IC50; for IC50: read-out: pIC50 (converted)
# Fem-X = assay: as §1; type: functional, cell-based
# K562 [6] = assay: Cytotoxicity against human K562 cells assessed as decrease in cell survival after 72 hrs by MTT assay; type: functional, cell-based; details: for pIC50 / IC50: K562, 72 h; for pIC50: read-out: IC50; for IC50: read-out: pIC50 (converted)
# MCF7 [7] = assay: Cytotoxicity against human MCF7 cells assessed as decrease in cell survival after 72 hrs by MTT assay; type: functional, cell-based; details: for pIC50 / IC50: MCF7, 72 h; for pIC50: read-out: IC50; for IC50: read-out: pIC50 (converted)
# [8] = Selectivity index, ratio of IC50 for PHA-stimulated human PBMC to IC50 for human Fem-X cells; type: functional
# K562 [9] = assay: Selectivity index, ratio of IC50 for human PBMC to IC50 for human K562 cells
# [10] = (§2) Cytotoxicity against human LS174 cells assessed as decrease in cell survival after 72 hrs by MTT assay; type: functional, cell-based; details: LS174, 72 h; for pIC50: read-out: IC50; for IC50: read-out: pIC50 (converted)
# LS174 = assay: as §2; type: functional, cell-based
# MCF7 [11] = assay: Selectivity index, ratio of IC50 for human PBMC to IC50 for human MCF7 cells
# [12] = Selectivity index, ratio of IC50 for human PBMC to IC50 for human Fem-X cells
# MCF7 [13] = assay: Selectivity index, ratio of IC50 for PHA-stimulated human PBMC to IC50 for human MCF7 cells
# HeLa [14] = assay: Selectivity index, ratio of IC50 for PHA-stimulated human PBMC to IC50 for human HeLa cells
# Aorta = assay: Cytotoxicity against rat aorta at < 10 uM in presence of potassium channel and calcium channel blocker; type: tissue-based
# [15] = Selectivity index, ratio of IC50 for PHA-stimulated human PBMC to IC50 for human LS174 cells
# K562 [16] = assay: Selectivity index, ratio of IC50 for PHA-stimulated human PBMC to IC50 for human K562 cells
# [17] = Selectivity index, ratio of IC50 for human PBMC to IC50 for human LS174 cells
# PBMC [18] = assay: Cytotoxicity against PHA-stimulated human PBMC assessed as decrease in cell survival after 72 hrs by MTT assay; type: cell-based
# HeLa [19] = assay: Selectivity index, ratio of IC50 for human PBMC to IC50 for human HeLa cells
# PC-3 [20] = assay: Selectivity index, ratio of IC50 for PHA-stimulated human PBMC to IC50 for human PC3 cells
Structure (SMILES),Ratio IC50 (PC-3 [1]),Activity (HeLa [2]),pIC50 (HeLa [2]),IC50 (HeLa [2]) [µM],pIC50 (PBMC [3]),Activity (PC-3 [4]),pIC50 (PC-3 [4]),IC50 (PC-3 [4]) [µM],pIC50 [5],IC50 [5] [µM],Activity (Fem-X),Activity (K562 [6]),pIC50 (K562 [6]),IC50 (K562 [6]) [µM],Activity (MCF7 [7]),pIC50 (MCF7 [7]),IC50 (MCF7 [7]) [µM],Ratio IC50 [8],Ratio IC50 (K562 [9]),pIC50 [10],also measured
CCCNCC(O)COc1ccccc1C(=O)CCc1ccccc1Cl.Cl (racemic),4.72,Dose-dependent effect,5.52,3,4.23,Dose-dependent effect,4.90,12.6,5.31,4.9,Dose-dependent effect,Dose-dependent effect,5.22,6,Dose-dependent effect,4.69,20.2,10.8,9.91,4.95,IC50 [10]: 11.2 µM; Activity (LS174): Dose-dependent effect; Ratio IC50 (MCF7 [11]): 2.95; Ratio IC50 [12]: 12.14; Ratio IC50 (MCF7 [13]): 2.62; Ratio IC50 (HeLa [14]): 17.63; Activity (Aorta): Not Active; Ratio IC50 [15]: 4.72; Ratio IC50 (K562 [16]): 8.82; Ratio IC50 [17]: 5.31; pIC50 (PBMC [18]): 4.28; Ratio IC50 (HeLa [19]): 19.83; Ratio IC50 (PC-3 [20]): 4.2
CCCNCC(O)COc1ccccc1C(=O)CCc1ccccc1C.Cl (racemic),2.91,Dose-dependent effect,5.05,8.9,4.28,Dose-dependent effect,4.74,18,5.17,6.8,Dose-dependent effect,Dose-dependent effect,5.09,8.1,Dose-dependent effect,4.63,23.4,7.32,6.47,4.69,IC50 [10]: 20.3 µM; Activity (LS174): Dose-dependent effect; Ratio IC50 (MCF7 [11]): 2.24; Ratio IC50 [12]: 7.71; Ratio IC50 (MCF7 [13]): 2.13; Ratio IC50 (HeLa [14]): 5.6; Ratio IC50 [15]: 2.45; Ratio IC50 (K562 [16]): 6.15; Ratio IC50 [17]: 2.58; pIC50 (PBMC [18]): 4.30; Ratio IC50 (HeLa [19]): 5.89; Ratio IC50 (PC-3 [20]): 2.77
